From PubChem BioAssay (NCI)
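GI50 marks 50% less growth. TGI marks complete inhibition of growth.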

Tests used:
Assay in all cases: NCI tumour cell line growth inhibition, 384-well format
UACC-62 melanoma = tested on: UACC-62 melanoma
U251 glioblastoma = tested on: U251 glioblastoma
KM12 colon = tested on: KM12 colon
NCI/ADR-RES ovarian = tested on: NCI/ADR-RES ovarian
NCI-H522 lung = tested on: NCI-H522 lung
BT-549 breast = tested on: BT-549 breast
SK-MEL-28 melanoma = tested on: SK-MEL-28 melanoma
T-47D breast = tested on: T-47D breast
LOX IMVI melanoma = tested on: LOX IMVI melanoma
SN12C renal = tested on: SN12C renal
RPMI-8226 leukemia = tested on: RPMI-8226 leukemia
NCI-H460 NSCLC = tested on: NCI-H460 NSCLC
IGROV1 ovarian = tested on: IGROV1 ovarian
NCI-H23 lung = tested on: NCI-H23 lung
SF-295 CNS = tested on: SF-295 CNS
MDA-MB-468 breast = tested on: MDA-MB-468 breast
ACHN renal = tested on: ACHN renal
SF-268 CNS = tested on: SF-268 CNS
HL-60(TB) leukemia = tested on: HL-60(TB) leukemia
EKVX NSCLC = tested on: EKVX NSCLC
RXF 393 renal = tested on: RXF 393 renal
HOP-62 NSCLC = tested on: HOP-62 NSCLC
MALME-3M melanoma = tested on: MALME-3M melanoma
OVCAR-4 ovarian = tested on: OVCAR-4 ovarian
MCF7 breast = tested on: MCF7 breast
TK-10 renal = tested on: TK-10 renal
HCC-2998 colon = tested on: HCC-2998 colon
SK-OV-3 ovarian = tested on: SK-OV-3 ovarian
NCI-H226 lung = tested on: NCI-H226 lung
SR leukemia = tested on: SR leukemia
HS 578T breast = tested on: HS 578T breast
OVCAR-5 ovarian = tested on: OVCAR-5 ovarian
MOLT-4 leukemia = tested on: MOLT-4 leukemia
UACC-257 melanoma = tested on: UACC-257 melanoma
HOP-92 NSCLC = tested on: HOP-92 NSCLC
COLO 205 colon = tested on: COLO 205 colon
SF-539 CNS = tested on: SF-539 CNS
A498 renal = tested on: A498 renal
DU-145 prostate = tested on: DU-145 prostate
A549 NSCLC = tested on: A549 NSCLC
SNB-19 CNS = tested on: SNB-19 CNS
SNB-75 CNS = tested on: SNB-75 CNS
MDA-MB-435 melanoma = tested on: MDA-MB-435 melanoma
OVCAR-8 ovarian = tested on: OVCAR-8 ovarian
MDA-MB-231 breast = tested on: MDA-MB-231 breast
SK-MEL-5 melanoma = tested on: SK-MEL-5 melanoma
CAKI-1 renal = tested on: CAKI-1 renal
PC-3 prostate = tested on: PC-3 prostate
M14 melanoma = tested on: M14 melanoma
OVCAR-3 ovarian = tested on: OVCAR-3 ovarian
HCT-15 colon = tested on: HCT-15 colon
HT29 colon = tested on: HT29 colon
HCT-116 colon = tested on: HCT-116 colon
NCI-H322M lung = tested on: NCI-H322M lung

With CC(C)c1cc(C(=O)N2Cc3ccc(CN4CCN(C)CC4)cc3C2)c(O)cc1O as the compound, how does the GI50 (UACC-62 melanoma) read?
Its GI50 is 113 nM.

And the TGI (UACC-62 melanoma)?
The TGI was 1680 nM.

What about the GI50 (U251 glioblastoma) of the same compound?
The GI50 was 34.3 nM.

What about the TGI (U251 glioblastoma) of the same compound?
Its TGI is 97.3 nM.

And the GI50 (KM12 colon)?
Its GI50 is 37.1 nM.

And the TGI (KM12 colon)?
The TGI was 12500 nM.

What about the GI50 (NCI/ADR-RES ovarian) of the same compound?
Its GI50 is 166 nM.

And the TGI (NCI/ADR-RES ovarian)?
The TGI was 515 nM.

What about the GI50 (NCI-H522 lung) of the same compound?
The GI50 was 20.6 nM.

And the TGI (NCI-H522 lung)?
Its TGI is 42.3 nM.

And the GI50 (BT-549 breast)?
Its GI50 is 32.1 nM.

What about the TGI (BT-549 breast) of the same compound?
The TGI was 528 nM.

And the GI50 (SK-MEL-28 melanoma)?
The GI50 was 400 nM.

And the TGI (SK-MEL-28 melanoma)?
The TGI was 17100 nM.

And the GI50 (T-47D breast)?
The GI50 was 172 nM.

And the TGI (T-47D breast)?
The TGI was 11600 nM.

And the GI50 (LOX IMVI melanoma)?
The GI50 was 39.2 nM.

What about the TGI (LOX IMVI melanoma) of the same compound?
Its TGI is 146 nM.

And the GI50 (SN12C renal)?
Its GI50 is 24.4 nM.

And the TGI (SN12C renal)?
The TGI was 125 nM.

And the GI50 (RPMI-8226 leukemia)?
Its GI50 is 40.3 nM.

And the TGI (RPMI-8226 leukemia)?
Its TGI is 156 nM.

What about the GI50 (NCI-H460 NSCLC) of the same compound?
Its GI50 is 17.9 nM.

And the TGI (NCI-H460 NSCLC)?
Its TGI is 43.6 nM.

What about the GI50 (IGROV1 ovarian) of the same compound?
The GI50 was 37.7 nM.

And the TGI (IGROV1 ovarian)?
The TGI was 216 nM.

And the GI50 (NCI-H23 lung)?
The GI50 was 38.2 nM.

What about the TGI (NCI-H23 lung) of the same compound?
Its TGI is 13300 nM.

And the GI50 (SF-295 CNS)?
Its GI50 is 40.7 nM.

And the TGI (SF-295 CNS)?
Its TGI is 256 nM.

And the GI50 (MDA-MB-468 breast)?
Its GI50 is 37.1 nM.

And the TGI (MDA-MB-468 breast)?
The TGI was 158 nM.

What about the GI50 (ACHN renal) of the same compound?
The GI50 was 59.4 nM.

And the TGI (ACHN renal)?
Its TGI is 2840 nM.

What about the GI50 (SF-268 CNS) of the same compound?
Its GI50 is 71.1 nM.

What about the TGI (SF-268 CNS) of the same compound?
The TGI was 16200 nM.

And the GI50 (HL-60(TB) leukemia)?
Its GI50 is 21.8 nM.

And the TGI (HL-60(TB) leukemia)?
The TGI was 41.7 nM.

What about the GI50 (EKVX NSCLC) of the same compound?
Its GI50 is 46.1 nM.

And the TGI (EKVX NSCLC)?
The TGI was 8590 nM.

And the GI50 (RXF 393 renal)?
The GI50 was 33.8 nM.

And the TGI (RXF 393 renal)?
Its TGI is 11300 nM.

What about the GI50 (HOP-62 NSCLC) of the same compound?
The GI50 was 47.4 nM.

And the TGI (HOP-62 NSCLC)?
Its TGI is 357 nM.

What about the GI50 (MALME-3M melanoma) of the same compound?
Its GI50 is 61.5 nM.

And the TGI (MALME-3M melanoma)?
Its TGI is 694 nM.

And the GI50 (OVCAR-4 ovarian)?
The GI50 was 33.2 nM.

What about the TGI (OVCAR-4 ovarian) of the same compound?
Its TGI is 1700 nM.

What about the GI50 (MCF7 breast) of the same compound?
Its GI50 is 37.9 nM.

What about the TGI (MCF7 breast) of the same compound?
Its TGI is 11100 nM.

And the GI50 (TK-10 renal)?
Its GI50 is 45 nM.

What about the TGI (TK-10 renal) of the same compound?
Its TGI is 856 nM.

And the GI50 (HCC-2998 colon)?
Its GI50 is 12.4 nM.

And the TGI (HCC-2998 colon)?
Its TGI is 31.7 nM.

And the GI50 (SK-OV-3 ovarian)?
Its GI50 is 84.3 nM.

And the TGI (SK-OV-3 ovarian)?
Its TGI is 12100 nM.

And the GI50 (NCI-H226 lung)?
Its GI50 is 75.8 nM.

And the TGI (NCI-H226 lung)?
The TGI was 838 nM.

What about the GI50 (SR leukemia) of the same compound?
Its GI50 is 13.8 nM.

What about the TGI (SR leukemia) of the same compound?
Its TGI is 36.8 nM.

And the GI50 (HS 578T breast)?
Its GI50 is 131 nM.

What about the TGI (HS 578T breast) of the same compound?
Its TGI is 2330 nM.

What about the GI50 (OVCAR-5 ovarian) of the same compound?
Its GI50 is 38.7 nM.

What about the TGI (OVCAR-5 ovarian) of the same compound?
Its TGI is 186 nM.

And the GI50 (MOLT-4 leukemia)?
The GI50 was 19.4 nM.

And the TGI (MOLT-4 leukemia)?
Its TGI is 35.7 nM.

What about the GI50 (UACC-257 melanoma) of the same compound?
Its GI50 is 186 nM.

And the TGI (UACC-257 melanoma)?
Its TGI is 5190 nM.

What about the GI50 (HOP-92 NSCLC) of the same compound?
Its GI50 is 217 nM.

What about the TGI (HOP-92 NSCLC) of the same compound?
The TGI was 1600 nM.

What about the GI50 (COLO 205 colon) of the same compound?
The GI50 was 23.7 nM.

And the TGI (COLO 205 colon)?
The TGI was 62.9 nM.

And the GI50 (SF-539 CNS)?
Its GI50 is 40.4 nM.

And the TGI (SF-539 CNS)?
The TGI was 10400 nM.

And the GI50 (A498 renal)?
Its GI50 is 82.2 nM.

And the TGI (A498 renal)?
The TGI was 11300 nM.

And the GI50 (DU-145 prostate)?
The GI50 was 30.3 nM.

And the TGI (DU-145 prostate)?
The TGI was 88.7 nM.

What about the GI50 (A549 NSCLC) of the same compound?
Its GI50 is 64.1 nM.

And the TGI (A549 NSCLC)?
The TGI was 16800 nM.

What about the GI50 (SNB-19 CNS) of the same compound?
Its GI50 is 76.4 nM.

What about the TGI (SNB-19 CNS) of the same compound?
Its TGI is 710 nM.

And the GI50 (SNB-75 CNS)?
The GI50 was 52.5 nM.

What about the TGI (SNB-75 CNS) of the same compound?
Its TGI is 11600 nM.

And the GI50 (MDA-MB-435 melanoma)?
The GI50 was 35.3 nM.

And the TGI (MDA-MB-435 melanoma)?
Its TGI is 10500 nM.

And the GI50 (OVCAR-8 ovarian)?
The GI50 was 37.9 nM.

What about the TGI (OVCAR-8 ovarian) of the same compound?
Its TGI is 175 nM.

What about the GI50 (MDA-MB-231 breast) of the same compound?
The GI50 was 142 nM.

What about the TGI (MDA-MB-231 breast) of the same compound?
Its TGI is 775 nM.

What about the GI50 (SK-MEL-5 melanoma) of the same compound?
The GI50 was 23.7 nM.

What about the TGI (SK-MEL-5 melanoma) of the same compound?
The TGI was 1330 nM.

What about the GI50 (CAKI-1 renal) of the same compound?
Its GI50 is 342 nM.

What about the TGI (CAKI-1 renal) of the same compound?
Its TGI is 17300 nM.

And the GI50 (PC-3 prostate)?
Its GI50 is 46.5 nM.

And the TGI (PC-3 prostate)?
The TGI was 319 nM.

What about the GI50 (M14 melanoma) of the same compound?
The GI50 was 47.9 nM.

What about the TGI (M14 melanoma) of the same compound?
Its TGI is 2690 nM.

And the GI50 (OVCAR-3 ovarian)?
Its GI50 is 34.3 nM.

And the TGI (OVCAR-3 ovarian)?
Its TGI is 93.5 nM.

What about the GI50 (HCT-15 colon) of the same compound?
Its GI50 is 32.2 nM.

And the TGI (HCT-15 colon)?
The TGI was 10200 nM.

And the GI50 (HT29 colon)?
The GI50 was 40.5 nM.

What about the TGI (HT29 colon) of the same compound?
Its TGI is 11300 nM.

What about the GI50 (HCT-116 colon) of the same compound?
Its GI50 is 57.6 nM.

What about the TGI (HCT-116 colon) of the same compound?
The TGI was 11700 nM.

And the GI50 (NCI-H322M lung)?
The GI50 was 84.7 nM.

And the TGI (NCI-H322M lung)?
Its TGI is 4760 nM.
